From ChEMBL document CHEMBL5154879, “Induction of Genes Implicated in Stress Response and Autophagy by a Novel Quinolin-8-yl-nicotinamide QN523 in Pancreatic Cancer” (J Med Chem, 2022) come the findings set out here.

For series [1], the system named is MIA PaCa-2. The series can be described thus: Induction of cell cycle arrest in human MIA PaCa-2 cells assessed as accumulation of cells in G2/M phase at 0.1 uM incubated for 48 hrs by RNase/propidium iodide staining based flow cytometry analysis (reference value: 2.71%). The class given is functional.
Series [2] is described as follows: Cytotoxicity against HEK293 cells assessed as inhibition of cell growth incubated for 72 hrs by MTT assay. The class given is toxicity, cell-based. The conditions noted are these: human. (In general: Formazan colour is commonly taken as a measure of viable cells.)
Series [3] relates to PANC-1. Description: Cytotoxicity against human PANC-1 cells assessed as inhibition of cell growth incubated for 72 hrs by MTT assay. The class given is functional, cell-based. The conditions noted are these: PANC-1, 72 h.
Series [4] can be described thus: Cytotoxicity against human HFF-1 cells assessed as inhibition of cell growth incubated for 72 hrs by MTT assay. The class given is toxicity, cell-based.
Series [5] concerns MIA PaCa-2. The series can be described thus: Induction of apoptosis in human MIA PaCa-2 cells assessed as viable cells at 0.1 uM incubated for 24 hrs by Annexin V-FITC/PI staining based flow cytometry analysis (reference value: 90.2%). The class given is functional. The conditions noted are these: read-out: Activity. Background: A flow cytometer gives signals particle by particle.

Series [6] concerns MIA PaCa-2. Description: Induction of apoptosis in human MIA PaCa-2 cells assessed as live cells at 0.5 uM incubated for 24 hrs by Annexin V-FITC/PI staining based flow cytometry analysis (reference value: 90.2%). The class given is functional.
The test system of series [7] is MIA PaCa-2. Description: Induction of apoptosis in human MIA PaCa-2 cells assessed as late apoptotic cells at 0.5 uM incubated for 24 hrs by Annexin V-FITC/PI staining based flow cytometry analysis (reference value: 2.04%). The class given is functional.
The subject of series [8] is MIA PaCa-2. The series can be described thus: Induction of apoptosis in human MIA PaCa-2 cells assessed as late apoptotic cells at 0.1 uM incubated for 24 hrs by Annexin V-FITC/PI staining based flow cytometry analysis (reference value: 2.04%). The class given is functional.
A short description of series [9]: Cytotoxicity against human HPDE cells assessed as inhibition of cell growth incubated for 72 hrs by MTT assay. The class given is toxicity, cell-based.
In series [10] the test system is MIA PaCa-2. The series can be described thus: Induction of cell cycle arrest in human MIA PaCa-2 cells assessed as accumulation of cells at S phase at 0.1 uM incubated for 24 hrs by RNase/propidium iodide staining based flow cytometry analysis (Rvb =27.6 %). The class given is functional.
In series [11] the test system is MIA PaCa-2. Description: Induction of apoptosis in human MIA PaCa-2 cells assessed as necrotic cells at 0.5 uM incubated for 48 hrs by Annexin V-FITC/PI staining based flow cytometry analysis (reference value: 1.07%). The class given is functional.
The test system of series [12] is MIA PaCa-2. Description: Induction of apoptosis in human MIA PaCa-2 cells assessed as necrotic cells at 0.1 uM incubated for 48 hrs by Annexin V-FITC/PI staining based flow cytometry analysis (reference value: 1.07%). The class given is functional.
Series [13] has as its system MIA PaCa-2. The series can be described thus: Induction of apoptosis in human MIA PaCa-2 cells assessed as late apoptotic cells at 0.1 uM incubated for 48 hrs by Annexin V-FITC/PI staining based flow cytometry analysis (reference value: 0.8%). The class given is functional.
Series [14] concerns MIA PaCa-2. Description: Induction of apoptosis in human MIA PaCa-2 cells assessed as early apoptotic cells at 0.5 uM incubated for 24 hrs by Annexin V-FITC/PI staining based flow cytometry analysis (reference value: 5.1%). The class given is functional.
The subject of series [15] is MIA PaCa-2. The series can be described thus: Induction of apoptosis in human MIA PaCa-2 cells assessed as necrotic cells at 0.1 uM incubated for 24 hrs by Annexin V-FITC/PI staining based flow cytometry analysis (reference value: 2.7%). The class given is functional.
For series [16], the system named is MIA PaCa-2. The series can be described thus: Induction of apoptosis in human MIA PaCa-2 cells assessed as early apoptotic cells at 0.5 uM incubated for 48 hrs by Annexin V-FITC/PI staining based flow cytometry analysis (reference value: 1.8%). The class given is functional.
The test system of series [17] is MIA PaCa-2. Description: Induction of cell cycle arrest in human MIA PaCa-2 cells assessed as accumulation of cells at S phase at 0.1 uM incubated for 48 hrs by RNase/propidium iodide staining based flow cytometry analysis (Rvb =26.9 %). The class given is functional.
Series [18] has as its system MIA PaCa-2. The series can be described thus: Induction of cell cycle arrest in human MIA PaCa-2 cells assessed as accumulation of cells in G2/M phase at 0.1 uM incubated for 24 hrs by RNase/propidium iodide staining based flow cytometry analysis (reference value: 8.11%). The class given is functional.
The subject of series [19] is MIA PaCa-2. Description: Induction of apoptosis in human MIA PaCa-2 cells assessed as live cells at 0.1 uM incubated for 48 hrs by Annexin V-FITC/PI staining based flow cytometry analysis (reference value: 96.3%). The class given is functional.
The subject of series [20] is MIA PaCa-2. Description: Induction of apoptosis in human MIA PaCa-2 cells assessed as viable cells at 0.5 uM incubated for 48 hrs by Annexin V-FITC/PI staining based flow cytometry analysis (reference value: 96.3%). The class given is functional. The conditions noted are these: read-out: Activity.
The test system of series [21] is MIA PaCa-2. The series can be described thus: Induction of cell cycle arrest in human MIA PaCa-2 cells assessed as accumulation of cells in G0/G1 phase at 0.1 uM incubated for 48 hrs by RNase/propidium iodide staining based flow cytometry analysis (reference value: 70.4%). The class given is functional.
Series [22] has as its system MIA PaCa-2. Description: Induction of apoptosis in human MIA PaCa-2 cells assessed as early apoptotic cells at 0.1 uM incubated for 24 hrs by Annexin V-FITC/PI staining based flow cytometry analysis (reference value: 5.1%). The class given is functional.
Series [23] has as its system MIA PaCa-2. Description: Induction of apoptosis in human MIA PaCa-2 cells assessed as late apoptotic cells at 0.5 uM incubated for 48 hrs by Annexin V-FITC/PI staining based flow cytometry analysis (reference value: 0.8%). The class given is functional.
Series [24] concerns MIA PaCa-2. The series can be described thus: Induction of apoptosis in human MIA PaCa-2 cells assessed as necrotic cells at 0.5 uM incubated for 24 hrs by Annexin V-FITC/PI staining based flow cytometry analysis (reference value: 2.7%). The class given is functional.
Series [25] concerns MIA PaCa-2. The series can be described thus: Induction of apoptosis in human MIA PaCa-2 cells assessed as early apoptotic cells at 0.1 uM incubated for 48 hrs by Annexin V-FITC/PI staining based flow cytometry analysis (reference value: 1.8%). The class given is functional.
Series [26] deals with MIA PaCa-2. Description: Induction of cell cycle arrest in human MIA PaCa-2 cells assessed as accumulation of cells in G0/G1 phase at 0.1 uM incubated for 24 hrs by RNase/propidium iodide staining based flow cytometry analysis (reference value: 64.3%). The class given is functional.
In series [27] the test system is MIA PaCa-2. Description: Induction of autophagy in human MIA PaCa-2 cells assessed as accumulation of GABARAPL1 marker gene expression at […] incubated for 72 hrs by Western blot analysis. The class given is functional, cell-based. In general terms: A western blot detects proteins with antibodies after separation by electrophoresis.
Series [28] relates to MIA PaCa-2. The series can be described thus: Induction of autophagy in human MIA PaCa-2 cells assessed as accumulation of LC3B marker gene expression at […] incubated for 72 hrs by Western blot analysis. The class given is functional, cell-based.
The test system of series [29] is MIA PaCa-2. The series can be described thus: Cytotoxicity against human MIA PaCa-2 cells assessed as inhibition of cell growth incubated for 72 hrs by MTT assay. The class given is functional, cell-based. The conditions noted are these: MIA PaCa-2, 72 h.
For series [30], the system named is MIA PaCa-2. The series can be described thus: Induction of autophagy in human MIA PaCa-2 cells assessed as accumulation of WIP11 marker gene expression at […] incubated for 72 hrs by Western blot analysis. The class given is functional, cell-based.

Activity calls are given as the source filed them. The calls are words filed in the database; no cut-off is given here.

Regarding `Nc1ccn([C@@H]2O[C@H](CO)[C@@H](O)C2(F)F)c(=O)n1` [GEMCITABINE], the Activity in series [1] is given as 0%; in series [6] it was 87.2%; in [7], 2.8%; in series [8], 4%; in series [10], 78.03%; in series [11], 2.6%. Also, the Activity in series [12] was 2.1%; in series [13], 2.01%; in series [14], 7.6%; in series [15] it was 0.8%; in series [16], 5.2%; in series [17], 89.3%. Also, the Activity was found to be 0.93% in series [18]; 93.7% in series [19]; 10.8% in series [21]; 16.1% in [22]; 2.3% in series [23]; 2.4% in series [24]. The Activity came to 2.2% in series [25] and 21.04% in [26]. Moreover, the IC50 – broadly, the midpoint of a concentration-inhibition curve – at 72 h in series [2] came out at 50 nM; in [4], 14400 nM; in [9], 1 nM. Besides, in series [3], the IC50 came out at 200 nM. The viability at 0.1 µM in series [5] was 79.1%. Besides, the viability at 0.5 µM in series [20] worked out at 90%.

For `CC1=C(CC(=O)O)c2cc(F)ccc2/C1=C\c1ccc([S+](C)[O-])cc1` (stereo not given), the result in series [27], in series [28] and in [30] was Active. Also, the IC50 in series [29] came to 300000 nM.
